# Measurements from publication PMC9037210, “Novel 3-(6-methylpyridin-2-yl)coumarin-based chalcones as selective inhibitors of cancer-related carbonic anhydrases IX and XII endowed with anti-proliferative activity” (Journal of Enzyme Inhibition and Medicinal Chemistry, 2022).
# pKi: −log10 of the molar value. Like-named read-outs stand apart in the source and are kept apart here.
# Columns and labels:
# hCA I = molecular target: T1, hCA I (Homo sapiens, UniProt P00915); experiment: stopped-flow CO2 hydrase assay, hCA I; type: biochemical
# T1 construct: made in house
# T1 sequence (P00915 whole entry): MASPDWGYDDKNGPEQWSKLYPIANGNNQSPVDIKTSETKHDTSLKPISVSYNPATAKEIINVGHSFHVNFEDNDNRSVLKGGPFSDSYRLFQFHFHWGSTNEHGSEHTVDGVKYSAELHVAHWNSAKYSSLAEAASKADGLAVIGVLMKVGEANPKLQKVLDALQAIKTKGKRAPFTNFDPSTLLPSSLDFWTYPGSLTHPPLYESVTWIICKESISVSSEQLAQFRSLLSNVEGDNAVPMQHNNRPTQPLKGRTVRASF
# Procedure: (§1) The newly synthesised MPCs (3 and 5a–o) were assessed for their CA inhibition activity employing the stopped-flow CO2 hydrase assay[29] for constitutional hCA (I/II) isoforms and cancer-linked hCA (IX/XII) isoforms.
# (§2) The CA inhibition activity for the herein reported MPC derivatives was evaluated against the hCA isoforms I, II, IX, and XII using stopped-flow CO2 hydrase test[7]^,[33–36] (see the Supplementary Material).
# (§3) Carbonic anhydrase inhibition assay
# (§4) The carbonic anhydrase catalyzed CO2 hydration actions for all coumarin-based […]
# (§5) Photophysics stopped-flow. The enzymes are recombinant proteins prepared in our lab. Phenol red (at a concentration of 0.2 mM) has been used as indicator, working at […]
# (§6) mM Na2SO4 (for maintaining constant the ionic strength), following the initial rates of the CA-catalyzed CO2 hydration reaction for a period of 10-100 s. The CO2 concentrations ranged from 1.7 to 17 mM for the determination of the kinetic parameters and inhibition constants. For each inhibitor at least six traces of the initial 5-10% of the reaction have been used for determining the initial velocity. The uncatalyzed rates were determined in the same manner and subtracted from the total observed rates. Stock solutions of inhibitor (0.1 mM) were prepared in distilled-deionized water and dilutions up to 0.01 nM were done thereafter with the assay buffer. Inhibitor and enzyme solutions were preincubated together for 6 hrs. at room temperature prior to assay, in order to allow for the formation of the E-I complex. The inhibition constants were obtained by non-linear least-squares methods using PRISM 3 and the Cheng-Prusoff equation, and represent the mean from at least three different
# hCA II = molecular target: T2, hCA II (Homo sapiens, UniProt P00918); experiment: stopped-flow CO2 hydrase assay, hCA II; type: biochemical; conditions: incubation time of 6 h, mean of three assays, read-out: KI CA II
# T2 construct: made in house
# Procedure: as §1, §2, §3, §4, §5, §6
# hCA IX = molecular target: T3, hCA IX (Homo sapiens, UniProt Q16790); experiment: stopped-flow CO2 hydrase assay, hCA IX; type: biochemical; conditions: for Selectivity index (SI) (KI off-target CA/KI target CA) Towards hCA IX: ratio of KI for hCA I and II relative to hCA IX; for pKi: stopped-flow, incubation time of 6 h, mean of three assays, read-out: KI CA IX; for fold decreased inhibitory activity towards hCA IX: relative to phenyl analogue 5a
# T3 construct: made in house
# Procedure: as §1, §2, §3, §4, §5, §6
# hCA XII = molecular target: T4, hCA XII (Homo sapiens, UniProt O43570); experiment: stopped-flow CO2 hydrase assay, hCA XII; type: biochemical; conditions: for Selectivity index (SI) (KI off-target CA/KI target CA) Towards hCA XII: ratio of KI for hCA I and II relative to hCA XII; for pKi: stopped-flow, incubation time of 6 h, mean of three assays, read-out: KI CA XII
# T4 construct: made in house
# T4 sequence (O43570 25-354): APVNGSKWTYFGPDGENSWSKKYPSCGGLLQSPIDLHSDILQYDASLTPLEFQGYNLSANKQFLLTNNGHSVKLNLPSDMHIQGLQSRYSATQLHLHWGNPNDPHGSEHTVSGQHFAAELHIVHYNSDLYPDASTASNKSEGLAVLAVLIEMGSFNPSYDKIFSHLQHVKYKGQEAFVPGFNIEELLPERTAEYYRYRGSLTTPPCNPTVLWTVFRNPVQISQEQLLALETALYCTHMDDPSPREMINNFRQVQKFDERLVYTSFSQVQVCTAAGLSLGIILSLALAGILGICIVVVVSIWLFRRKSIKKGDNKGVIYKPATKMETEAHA
# Procedure: as §1, §2, §3, §4, §5, §6
# SNB-75 = experiment: NCI single (10 µM) dose SRB screening, SNB-75; type: cell-based, human; conditions: 10 µM single dose, SNB-75, CNS cancer
# Procedure: (§7) Following NCI protocol, sixteen MPCs were screened for their potential in vitro anticancer effects against human 59 cancer cell panels including prostate, leukaemia melanoma, colon, breast, CNS, renal, NSCLC, and ovarian cancers by National Cancer Institute (USA)[30].
# (§8) The antiproliferative activities of MPC 3 and MPCs 5a–o were first evaluated in a 10 µM dose assay, with SRB assay used to determine cell survival and proliferation. […] The results of the cell growth inhibitory activities for MPCs 5g and 5l towards the different treated tumour cell lines were presented as GI% and presented in Table 3.
# (§9) The anticancer test was conducted using the methods of the Drug Evaluation Branch, National Cancer Institute, Bethesda, MD, using 59 human tumour cell lines derived from nine human tissues. The GI50, TGI, and LC50 dose-response parameters were calculated for each medication.
# LOX IMVI = experiment: NCI single (10 µM) dose SRB screening, LOX IMVI; type: cell-based, human; conditions: 10 µM single dose, Melanoma
# Procedure: as §7, §8, §9
# MCF7 = experiment: NCI single (10 µM) dose SRB screening, MCF7; type: cell-based, human; conditions: 10 µM single dose, MCF7, Breast cancer
# Procedure: as §7, §8, §9
# MDA-MB-435 = experiment: NCI single (10 µM) dose SRB screening, MDA-MB-435; type: cell-based, human; conditions: 10 µM single dose, MDA-MB-435, Melanoma
# Procedure: as §7, §8, §9
# [1] = stopped-flow, incubation time of 6 h, mean of three assays, read-out: KI CA I
smiles,measurement,setting,value
"CC(=O)c1ccc(-c2cc3ccccc3oc2=O)nc1C [Compound 3, 3-(5-acetyl-6-methylpyridin-2-yl)-2H-chromen-2-one]",pKi,hCA I; [1],< 4.00
same,pKi,hCA II,< 4.00
same,Selectivity index (SI) (KI off-target CA/KI target CA) Towards hCA IX,hCA IX,>105.26
same,pKi,hCA IX,6.02
same,Selectivity index (SI) (KI off-target CA/KI target CA) Towards hCA XII,hCA XII,>147.06
same,pKi,hCA XII,6.17
"Cc1nc(-c2cc3ccccc3oc2=O)ccc1C(=O)/C=C/c1ccccc1 [Compound 5a, 3-(6-Methyl-5-[(2E)-3-phenylprop-2-enoyl]pyridin-2-yl)-2H-chromen-2-one]",pKi,hCA I; [1],< 4.00
same,pKi,hCA II,< 4.00
same,Selectivity index (SI) (KI off-target CA/KI target CA) Towards hCA IX,hCA IX,>66.67
same,pKi,hCA IX,5.82
same,Selectivity index (SI) (KI off-target CA/KI target CA) Towards hCA XII,hCA XII,>19.61
same,pKi,hCA XII,5.29
"Cc1nc(-c2cc3ccccc3oc2=O)ccc1C(=O)/C=C/c1ccc(F)cc1 [Compound 5b, 3-(5-[(2E)-3-(4-Fluorophenyl)prop-2-enoyl]-6-methylpyridin-2-yl)-2H-chromen-2-one]",pKi,hCA I; [1],< 4.00
same,pKi,hCA II,< 4.00
same,Selectivity index (SI) (KI off-target CA/KI target CA) Towards hCA IX,hCA IX,>29.41
same,pKi,hCA IX,5.47
same,Selectivity index (SI) (KI off-target CA/KI target CA) Towards hCA XII,hCA XII,>37.04
same,pKi,hCA XII,5.57
same,GI %,SNB-75,39%
same,GI %,LOX IMVI,46%
same,GI %,MCF7,49%
"Cc1nc(-c2cc3ccccc3oc2=O)ccc1C(=O)/C=C/c1ccc(Cl)cc1 [Compound 5c, 3-(5-[(2E)-3-(4-Chlorophenyl)prop-2-enoyl]-6-methylpyridin-2-yl)-2H-chromen-2-one]",pKi,hCA I; [1],< 4.00
same,pKi,hCA II,< 4.00
same,Selectivity index (SI) (KI off-target CA/KI target CA) Towards hCA IX,hCA IX,>17.24
same,pKi,hCA IX,5.24
same,Selectivity index (SI) (KI off-target CA/KI target CA) Towards hCA XII,hCA XII,>52.63
same,pKi,hCA XII,5.72
same,melting point,,223 to 225 °C
"Cc1ccc(/C=C/C(=O)c2ccc(-c3cc4ccccc4oc3=O)nc2C)cc1 [Compound 5d, 3-(6-Methyl-5-[(2E)-3-(4-methylphenyl)prop-2-enoyl]pyridin-2-yl)-2H-chromen-2-one]",pKi,hCA I; [1],< 4.00
same,pKi,hCA II,< 4.00
same,Selectivity index (SI) (KI off-target CA/KI target CA) Towards hCA IX,hCA IX,>23.25
same,pKi,hCA IX,5.37
same,Selectivity index (SI) (KI off-target CA/KI target CA) Towards hCA XII,hCA XII,>12.19
same,pKi,hCA XII,5.09
same,melting point,,206 to 208 °C
"Cc1nc(-c2cc3ccccc3oc2=O)ccc1C(=O)/C=C/c1ccc([N+](=O)[O-])cc1 [Compound 5e, 3-(6-Methyl-5-[(2E)-3-(4-nitrophenyl)prop-2-enoyl]pyridin-2-yl)-2H-chromen-2-one]",pKi,hCA I; [1],< 4.00
same,pKi,hCA II,< 4.00
same,Selectivity index (SI) (KI off-target CA/KI target CA) Towards hCA IX,hCA IX,>6.10
same,pKi,hCA IX,4.79
same,Selectivity index (SI) (KI off-target CA/KI target CA) Towards hCA XII,hCA XII,>9.17
same,pKi,hCA XII,4.96
same,melting point,,202 to 204 °C
"Cc1nc(-c2cc3ccccc3oc2=O)ccc1C(=O)/C=C/c1ccc(N(C)C)cc1 [Compound 5f, 3-(5-[(2E)-3-[4-(Dimethylamino)phenyl]prop-2-enoyl]-6-methylpyridin-2-yl)-2H-chromen-2-one]",pKi,hCA I; [1],< 4.00
same,pKi,hCA II,< 4.00
same,Selectivity index (SI) (KI off-target CA/KI target CA) Towards hCA IX,hCA IX,>11.76
same,pKi,hCA IX,5.07
same,Selectivity index (SI) (KI off-target CA/KI target CA) Towards hCA XII,hCA XII,>14.92
same,pKi,hCA XII,5.17
same,GI %,MDA-MB-435,80%
"COc1ccc(/C=C/C(=O)c2ccc(-c3cc4ccccc4oc3=O)nc2C)cc1 [Compound 5h, 3-(5-[(2E)-3-(4-Methoxyphenyl)prop-2-enoyl]-6-methylpyridin-2-yl)-2H-chromen-2-one]",pKi,hCA I; [1],< 4.00
same,pKi,hCA II,< 4.00
same,Selectivity index (SI) (KI off-target CA/KI target CA) Towards hCA IX,hCA IX,>9.34
same,pKi,hCA IX,4.97
same,Selectivity index (SI) (KI off-target CA/KI target CA) Towards hCA XII,hCA XII,>35.71
same,pKi,hCA XII,5.55
same,melting point,,174 to 175 °C
"COc1cc(/C=C/C(=O)c2ccc(-c3cc4ccccc4oc3=O)nc2C)cc(OC)c1OC [Compound 5i, 3-(6-Methyl-5-[(2E)-3-(3,4,5-trimethoxyphenyl)prop-2-enoyl]pyridin-2-yl)-2H-chromen-2-one]",pKi,hCA I; [1],< 4.00
same,pKi,hCA II,< 4.00
same,Selectivity index (SI) (KI off-target CA/KI target CA) Towards hCA IX,hCA IX,>3.65
same,pKi,hCA IX,4.56
same,Selectivity index (SI) (KI off-target CA/KI target CA) Towards hCA XII,hCA XII,>7.75
same,pKi,hCA XII,4.89
same,melting point,,186 to 188 °C
"Cc1nc(-c2cc3ccccc3oc2=O)ccc1C(=O)/C=C/c1ccc2c(c1)OCO2 [Compound 5j, 3-(5-[(2E)-3-(2H-1,3-Benzodioxol-5-yl)prop-2-enoyl]-6-methylpyridin-2-yl)-2H-chromen-2-one]",pKi,hCA I; [1],< 4.00
same,pKi,hCA II,< 4.00
same,Selectivity index (SI) (KI off-target CA/KI target CA) Towards hCA IX,hCA IX,>18.87
same,fold decreased inhibitory activity towards hCA IX,hCA IX,about 3.5 fold
same,pKi,hCA IX,5.28
same,Selectivity index (SI) (KI off-target CA/KI target CA) Towards hCA XII,hCA XII,>14.71
same,pKi,hCA XII,5.17
same,melting point,,178 to 180 °C
"Cc1nc(-c2cc3ccccc3oc2=O)ccc1C(=O)/C=C/c1cccc2ccccc12 [Compound 5k, 3-(6-Methyl-5-[(2E)-3-(naphthalen-1-yl)prop-2-enoyl]pyridin-2-yl)-2H-chromen-2-one]",pKi,hCA I; [1],< 4.00
same,pKi,hCA II,< 4.00
same,Selectivity index (SI) (KI off-target CA/KI target CA) Towards hCA IX,hCA IX,>2.71
same,fold decreased inhibitory activity towards hCA IX,hCA IX,~23 fold
same,pKi,hCA IX,4.43
same,Selectivity index (SI) (KI off-target CA/KI target CA) Towards hCA XII,hCA XII,>4.67
same,pKi,hCA XII,4.67
same,melting point,,204 to 206 °C
"Cc1nc(-c2cc3ccccc3oc2=O)ccc1C(=O)/C=C/c1cccs1 [Compound 5m, 3-(6-Methyl-5-[(2E)-3-(thiophen-2-yl)prop-2-enoyl]pyridin-2-yl)-2H-chromen-2-one]",pKi,hCA I,< 4.00
same,pKi,hCA II,< 4.00
"Cc1ccc(/C=C/C(=O)c2ccc(-c3cc4ccccc4oc3=O)nc2C)o1 [Compound 5n, 3-(6-Methyl-5-[(2E)-3–(5-methylfuran-2-yl)prop-2-enoyl]pyridin-2-yl)-2H-chromen-2-one]",pKi,hCA I; [1],< 4.00
same,pKi,hCA II,< 4.00
same,Selectivity index (SI) (KI off-target CA/KI target CA) Towards hCA IX,hCA IX,>66.67
same,pKi,hCA IX,5.82
same,Selectivity index (SI) (KI off-target CA/KI target CA) Towards hCA XII,hCA XII,>52.63
same,pKi,hCA XII,5.72
same,GI %,LOX IMVI,39%
same,GI %,MCF7,40%
"Cc1nn(-c2ccccc2)cc1/C=C/C(=O)c1ccc(-c2cc3ccccc3oc2=O)nc1C [Compound 5o, 3-(6-Methyl-5-[(2E)-3–(3-methyl-1-phenyl-1H-pyrazol-4-yl)prop-2-enoyl]pyridin-2-yl)-2H-chromen-2-one]",pKi,hCA I; [1],< 4.00
same,pKi,hCA II,< 4.00
same,Selectivity index (SI) (KI off-target CA/KI target CA) Towards hCA IX,hCA IX,>5.15
same,pKi,hCA IX,4.71
same,Selectivity index (SI) (KI off-target CA/KI target CA) Towards hCA XII,hCA XII,>5.62
same,pKi,hCA XII,4.75
same,melting point,,204 to 206 °C
